Laboratory results reported in patent US6337344B1, “Indole derivatives as inhibitors or factor Xa” (Aventis Pharma Deutschland GmbH, priority 1997, dated 2002).
Where a name gives a salt, the structure may show the parent alone.

tested on: not given; experiment: not given

Point of comparison: `COc1cccc2c1cc(C(=O)NC(c1ccccc1)c1cc[n+](C)cc1)n2Cc1cccc(C(=N)N)c1.O=C(O)C(F)(F)F.O=C([O-])C(F)(F)F` (racemic) [Example 24, (RS)-4-({[1-(3-Amidino-benzyl)-4-methoxy-1H-indole-2-carbonyl]-amino}-phenyl-methyl)-1-methyl-pyridinium trifluoroacetate trifluoroacetic acid salt], melting point 135 °C. Against it:
- N=C(N)c1cccc(Cn2c(C(=O)NCc3cc(Cl)cc(Cl)c3)cc3c(O)cccc32)c1 (as salt: trifluoroacetic acid salt) [Example 120] — lower, 117 °C
- COC(=O)c1cccc(CNC(=O)c2cc3c(O)cccc3n2Cc2cccc(C(=N)N)c2)c1 (as salt: trifluoroacetic acid salt) [Example 132] — lower, 95 °C
- N=C(N)c1ccc(Cn2c(C(=O)NC(c3ccccc3)c3ccncc3)cc3ccccc32)cc1.O=C(O)C(F)(F)F.O=C(O)C(F)(F)F (racemic) — higher, 150 °C
- COc1cccc2c1cc(C(=O)NC(c1ccccc1)c1ccncc1)n2Cc1cccc(C(=N)N)c1.O=C(O)C(F)(F)F.O=C(O)C(F)(F)F (racemic) — lower, 105 °C
- COc1cccc2c1cc(C(=O)NCCc1ccncc1)n2Cc1cccc(/C(N)=N/O)c1 [Example 49, 1-(3-Hydroxyamidino-benzyl)-4-methoxy-1H-indole-2-carboxylic acid 2-(4-pyridyl)-ethyl amide] — higher, 220 to 222 °C
- N/C(=N\O)c1cccc(COC(=O)c2cc3ccccc3n2Cc2cccc(/C(N)=N/O)c2)c1 [Example 53, 1-(3-Hydroxyamidino-benzyl)-1H-indole-2-carboxylic acid (3-hydroxyamidino-benzyl)ester] — lower, 114 to 116 °C
- N=C(N)c1cccc(CNC(=O)c2cc3c(O)cccc3n2Cc2cccc(C(=N)N)c2)c1.O=C(O)C(F)(F)F.O=C(O)C(F)(F)F [Example 77, 1-(3-Amidino-benzyl)-4-hydroxy-1H-indole-2-carboxylic acid 3-amidino-benzylamide trifluoroacetic acid salt] — lower, 128 to 131 °C

In the case of `Cc1cccc2c1cc(C(=O)NCc1ccc([N+](C)(C)C)cc1)n2Cc1cccc(C(=N)N)c1.O=C(O)C(F)(F)F.O=C([O-])C(F)(F)F` [Example 35, [4-({[1-(3-Amidino-benzyl)-4-methyl-1H-indole-2-carbonyl]-amino}-methyl)-phenyl]-trimethyl-ammonium trifluoroacetate trifluoroacetic acid salt], the melting point is reported as 81 °C (dec.).
For `COc1cccc2c1cc(C(=O)NCCc1ccc(O)cc1)n2Cc1cccc(/C(N)=N/O)c1` [Example 51, 1-(3-Hydroxyamidino-benzyl)-4-methoxy-1H-indole-2-carboxylic acid 2-(4-hydroxy-phenyl)-ethyl amide], the melting point was 173 to 175 °C (dec.).
For `CN(C)c1ccc(CNC(=O)c2cc3cc(Cl)ccc3n2Cc2cccc(/C(N)=N/O)c2)cc1` [Example 52, 1-(3-Hydroxyamidino-benzyl)-5-chloro-1H-indole-2-carboxylic acid (4-dimethylamino)-benzyl amide], the melting point was 200 °C (dec.).
For `C[N+](C)(C)c1ccc(CNC(=O)c2cc3cc(OCc4ccccc4)ccc3n2Cc2cccc(C(=N)N)c2)cc1.O=C(O)C(F)(F)F.O=C([O-])C(F)(F)F` [Example 56, [4-({[5-Benzyloxy-1-(3-amidino-benzyl)-1H-indole-2-carbonyl]-amino}-methyl)-phenyl]-trimethyl-ammonium trifluoroacetate trifluoroacetic acid salt], the melting point was 60 °C (dec.).
With `C[N+](C)(C)c1ccc(CNC(=O)c2cc3c(OCc4ccccc4)cccc3n2Cc2cccc(C(=N)N)c2)cc1.[I-]` [Example 68, [4-({[1-(3-Amidino-benzyl)-4-benzyloxy-1H-indole-2-carbonyl]-amino}-methyl)-phenyl]-trimethyl-ammonium iodide hydroiodide] the melting point was 158 °C (dec.).

biological target: T1, human factor Xa (Homo sapiens, UniProt P00742); experiment: Factor Xa assay (Test 1, a.), chromogenic substrate S-2765; type: biochemical
T1 construct: purchased Enzyme Research Laboratories, Inc; South Bend, Ind
Protocol: Purified enzymes are used in chromogenic assays. To determine the inhibition constant Ki, the IC50 value is corrected for competition with substrate using the formula
Ki'IC50×(1/{1+((substrate concentration)/substrate Km)})
wherein Km is the Michaelis-Menten constant (Chen and Prusoff, Biochem. Pharmacol. 22 (1973), […] which is incorporated herein by reference).
TBS-PEG buffer (50 mM Tris-Cl, pH 7.8, 200 mM NaCl, 0.05% (w/v) PEG-8000, 0.02% (w/v) NaN3) is used for this assay.
The assay is performed by pre-incubating the compound of formula I plus enzyme for 10 min. Then the assay is initiated by adding substrate to obtain a final volume of 100 μl. The initial velocity of chromogenic substrate hydrolysis is measured by the change in absorbance at 405 nm using a Bio-tek Instruments kinetic plate reader (Ceres UV900HDi) at 25° C. during the linear portion of the time course (usually 1.5 min after addition of substrate). The concentration of inhibitor that causes a 50% decrease in the rate of substrate hydrolysis is predicted by linear regression after plotting the relative rates of hydrolysis (compared to the uninhibited control) versus the log of the concentration of the compound of formula I. The enzyme concentration is 0.5 nM and substrate concentration is 140 μM.
The inhibition constants were determined as described above (Test 1, a., Factor Xa Assay).

T1 sequence (P00742 235-488 limits assumed): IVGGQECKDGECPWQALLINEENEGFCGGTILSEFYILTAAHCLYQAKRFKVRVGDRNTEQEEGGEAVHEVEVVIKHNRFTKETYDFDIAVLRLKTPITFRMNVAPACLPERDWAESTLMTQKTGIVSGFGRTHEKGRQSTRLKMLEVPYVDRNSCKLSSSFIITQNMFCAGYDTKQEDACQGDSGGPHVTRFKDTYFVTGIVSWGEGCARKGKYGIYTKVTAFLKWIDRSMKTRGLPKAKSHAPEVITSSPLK
T1 sequence (P00742 41-179 partner limits assumed): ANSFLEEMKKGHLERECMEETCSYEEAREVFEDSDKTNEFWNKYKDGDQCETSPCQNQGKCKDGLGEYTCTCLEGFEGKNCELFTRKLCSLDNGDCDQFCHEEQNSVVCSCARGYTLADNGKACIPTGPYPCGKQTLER

Point of comparison: `C[N+](C)(C)c1ccc(CNC(=O)c2c(Cl)c3ccccc3n2Cc2cccc(C(=N)N)c2)cc1` [Example 106], Ki 40 nM. Against it:
- CC(NC(=O)c1cc2ccccc2n1Cc1cccc(C(=N)N)c1)c1cc[n+](C)cc1 (racemic) [Example 2, (RS)-4-(1-{[1-(3-Amidino-benzyl)-1H-indole-2-carbonyl]-amino}-ethyl)-1-methylpyridinium trifluoroacetate trifluoroacetic acid salt, trifluoroacetate trifluoroacetic acid …] — 2.5-fold higher, 100 nM
- COc1cccc2c1cc(C(=O)NC(c1ccccc1)c1cc[n+](C)cc1)n2Cc1cccc(C(=N)N)c1.O=C(O)C(F)(F)F.O=C([O-])C(F)(F)F (racemic) [Example 24, (RS)-4-({[1-(3-Amidino-benzyl)-4-methoxy-1H-indole-2-carbonyl]-amino}-phenyl-methyl)-1-methyl-pyridinium trifluoroacetate trifluoroacetic acid salt, trifluoroacetate trifluoroacetic acid …] — 2.8-fold higher, 110 nM
- C[C@@H](NC(=O)c1cc2cc(OCc3ccccc3)ccc2n1Cc1cccc(C(N)=S)c1)c1ccccc1 [21(4), (R)-5-Benzyloxy-1-(3-thiocarbamoyl-benzyl)-1H-indole-2-carboxylic acid (1-phenyl-ethyl)amide] — 120-fold higher, 4800 nM
- C[N+](C)(C)c1ccc(CNC(=O)c2cc3ccccc3n2Cc2cccc(C(=N)N)c2)cc1 [Example 4, [4-({[1-(3-Amidino-benzyl)-1H-indole-2-carbonyl]-amino}-methyl)-phenyl]-trimethyl-ammonium trifluoroacetate trifluoroacetic acid salt, trifluoroacetate trifluoroacetic acid …] — 2.2-fold higher, 90 nM
- C[N+](C)(C)Cc1ccc(CNC(=O)c2cc3ccccc3n2Cc2cccc(C(=N)N)c2)cc1 [Example 6, [4-({[1-(3-Amidino-benzyl)-1H-indole-2-carbonyl]-amino}-methyl)-benzyl]-trimethyl-ammonium trifluoroacetate trifluoroacetic acid salt, trifluoroacetate trifluoroacetic acid …] — 10-fold higher, 400 nM
- Cc1cccc2c1cc(C(=O)NCc1ccc([N+](C)(C)C)cc1)n2Cc1cccc(C(=N)N)c1.O=C(O)C(F)(F)F.O=C([O-])C(F)(F)F [Example 35, [4-({[1-(3-Amidino-benzyl)-4-methyl-1H-indole-2-carbonyl]-amino}-methyl)-phenyl]-trimethyl-ammonium trifluoroacetate trifluoroacetic acid salt, trifluoroacetate trifluoroacetic acid …] — 4.4-fold lower, 9 nM
- N=C(N)NCCC[C@H](NC(=O)c1cc2ccccc2n1Cc1ccc(C(=N)N)cc1)C(N)=O [Example 81, 1-(4-Amidinobenzyl)-1H-indole-2-carbonyl-L-arginyl amide trifluoroacetic acid salt] — 1600-fold higher, 63000 nM
- N=C(N)c1ccc(C(=O)N2CCc3c(n(Cc4cccc(C(=N)N)c4)c4ccccc34)C2)cc1 [Example 84, 2-(4-Amidino-benzoyl)-9-(3-amidino-benzyl)-1,2,3,4-tetrahydro-9H-pyrido[3,4-b]indole trifluoroacetic acid salt] — 22-fold higher, 900 nM
- Cc1cc(CNC(=O)c2cc3c(O)cccc3n2Cc2cccc(C(=N)N)c2)cc(C(F)(F)F)c1 [Example 112] — 3.1-fold lower, 13 nM
- N=C(N)c1cccc(CNC(=O)c2c(Cl)c3ccccc3n2Cc2cccc(C(=N)N)c2)c1 [Example 115] — 4.4-fold lower, 9 nM
- N=C(N)c1cccc(Cn2c(C(=O)NCc3cc(Cl)cc(Cl)c3)cc3c(O)cccc32)c1 [Example 120] — 8.3-fold lower, 4.8 nM
